# Key:
# [1] = test system: well-compensated NASH cirrhotic patients; assay: MAESTRO-NAFLD-1 open label well-compensated NASH cirrhotic arm, 52 weeks; assay type: in vivo, human
# Experimental: LV was assessed using a validated artificial intelligence model for segmenting the liver on standard MR images. […] Eligibility required at least 3 metabolic risk factors (metabolic syndrome), and NASH cirrhosis diagnosed on liver biopsy or according to accepted criteria. […] Demographics include mean age 62.7 (9.0 (SD)), female 64%, BMI 35.4 (7.4), diabetes 70%, hypertension 77%, dyslipidemia >70%, mean ASCVD score 16.1%, hypothyroid 32.4%, 51% on statins. […] Stage of cirrhosis was inversely correlated with baseline PDFF.
# [2] = Effect of food (high-fat meal) on pharmacokinetics; assay type: in vivo, human; conditions: high-fat meal vs fasted
# Protein binding = assay type: in vitro ADME
# [3] = test system: NASH patients with and without possible MetALD; assay: MAESTRO-NASH: possible MetALD subgroup; assay type: in vivo, human; conditions: for Fibrosis Improvement, % of patients / Fibrosis Improvement, number of patients / NASH Resolution, % of patients / NASH Resolution, number of patients: Week 52
# Experimental: Analyses were performed on 782 patients who had both a baseline and Week 52 biopsy. Patients with a self-declared consumption of alcohol ≤2 drinks/day for men and ≤1.5 drinks/day for women were included as per usual MASH diagnostic recommendations. However, in attempt to objectify undisclosed moderate alcohol consumption above those limits, at baseline or during the trial, CDT measurements were performed longitudinally in all patients over 52 weeks. Post-randomization, a phosphatidylethanol (PEth) test was performed in patients tested for alcohol consumption based on increased liver enzymes ALT, AST and/or GGT (<2%). Those with increased PEth were included as MetALD. Patients with baseline or post-baseline CDT>2.5% (ULN 2.47) and/or a PEth>20 ng/mL (ULN 20 ng/mL) were assigned to a “possible MetALD” subgroup (possible increased alcohol consumption).
# [4] = test system: adults with biopsy-confirmed NASH; assay: MAESTRO-NASH: biomarkers PRO-C3 and P3NP/ELF; assay type: in vivo, human
# Experimental: Pearson's correlation was used to examine the association between 2 PRO-C3 enzyme-linked immunosorbent assay (ELISA) assay methods (ELISA GEN1 and ELISA GEN2, NORDIC BIOSCIENCE) using PRO-C3 baseline data (N=919). The remainder of the analyses used the ELISA GEN2 assay. Mean SD or SE and median [Q1, Q3]were calculated to summarize PRO-C3 data. […] Mean difference with 95% CI and nominal P-values were obtained from the ANCOVA. Scatterplots and Spearman's correlations with 95% CIs were used to assess the associations between P3NP/ELF and PRO-C3 both at baseline and change from baseline at Week 52.
# CYP2C8 = target: T1, CYP2C8 (Homo sapiens, UniProt P10632); assay: Concomitant use with a CYP2C8 inhibitor; parameters: from tissue; host or cells: human subjects in vivo (endogenous enzyme); conditions: in vivo
# T1 sequence (P10632 1-490): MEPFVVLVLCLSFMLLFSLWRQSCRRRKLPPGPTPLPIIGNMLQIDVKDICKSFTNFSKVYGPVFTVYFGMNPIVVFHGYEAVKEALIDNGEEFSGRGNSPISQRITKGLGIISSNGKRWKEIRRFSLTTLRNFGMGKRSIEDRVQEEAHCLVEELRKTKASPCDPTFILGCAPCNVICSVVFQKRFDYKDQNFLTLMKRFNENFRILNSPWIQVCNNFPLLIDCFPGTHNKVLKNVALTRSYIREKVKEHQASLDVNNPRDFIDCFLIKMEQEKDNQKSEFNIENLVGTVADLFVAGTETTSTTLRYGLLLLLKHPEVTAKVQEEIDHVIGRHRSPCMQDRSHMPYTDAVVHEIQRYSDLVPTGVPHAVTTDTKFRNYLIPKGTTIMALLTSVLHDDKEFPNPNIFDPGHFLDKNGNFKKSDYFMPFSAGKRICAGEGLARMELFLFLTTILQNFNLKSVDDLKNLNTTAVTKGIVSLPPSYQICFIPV
# [5] = cirrhotic NASH, PDFF≤5% at baseline, week 16
# [6] = MASH/NASH (low alcohol), 80 mg (n = 224)
# [7] = MASH/NASH (low alcohol), 100 mg
# [8] = MASH/NASH (low alcohol), 100 mg (n = 228)
# [9] = low or no alcohol consumption, 80 mg
# [10] = low or no alcohol consumption, 100 mg
# [11] = F1B patients only, 80 mg, Week 52
# [12] = F1B patients only, 100 mg, Week 52
# [13] = F2 patients only, 80 mg, Week 52
# [14] = F2 patients only, 100 mg, Week 52
# [15] = F3 patients only, 80 mg, Week 52
# [16] = F3 patients only, 100 mg, Week 52
# [17] = Overall, 80 mg, Week 52, ELISA GEN2
# [18] = Overall, 100 mg, Week 52, ELISA GEN2
compound,measurement,setting,value
"CC(C)c1cc(Oc2c(Cl)cc(-n3nc(C#N)c(=O)[nH]c3=O)cc2Cl)n[nH]c1=O [Resmetirom, 2-(3,5-dichloro-4-((5-isopropyl-6-oxo-1,6-dihydropyridazin-3-yl)oxy)phenyl)-3,5-dioxo-2,3,4,5-tetrahydro-1,2,4-triazine-6-carbonitrile]",fibroscan CAP change,"[1]; 80-100 mg daily, week 52",−42 units
same,fibroscan kPa change,"[1]; 80-100 mg daily, week 52",−7.6 kPa
same,LV mean %CFB,[1]; [5],−16.3%
same,PDFF mean %CFB,[1]; [5],−2.5%
same,ApoB reduction,[1]; in vivo,20%
same,Blood pressure reduction,[1]; in vivo,4-5 mm
same,GGT change,[1]; in vivo,−27%
same,LDL-C reduction,[1]; in vivo,20%
same,Lp(a) reduction,[1]; in vivo,30%
same,alkaline phosphatase (ALP) change,[1]; in vivo,−18%
same,safety and tolerability,[1]; in vivo,safe and well-tolerated
same,triglycerides reduction,[1]; in vivo,21%
same,PDFF lowered by,[1]; patients with baseline PDFF>5%,37%
same,Liver volume change,[1]; week 16,−15.9%
same,MRE lowered by,[1]; week 52,0.68 kPa
same,patients with >15% reduction in LV,[1]; week 52,73%
same,patients with MRE reduction of ≥15%,[1]; week 52,34%
same,decrease in AUC with food,[2],11%
same,decrease in Cmax with food,[2],33%
same,Tmax,"[2]; human, plasma, oral, read-out: delay in median Tmax with food",~2 h
same,protein-bound,Protein binding,greater than 99%
same,"MRI-PDFF ≥30% reduction, % of patients","[3]; MASH/NASH (low alcohol), 80 mg",(59.2%)
same,"MRI-PDFF ≥30% reduction, patients/evaluated","[3]; MASH/NASH (low alcohol), 80 mg",109/184
same,"Fibrosis Improvement, % of patients",[3]; [6],29%
same,"Fibrosis Improvement, number of patients",[3]; [6],65
same,"NASH Resolution, % of patients",[3]; [6],29.9%
same,"NASH Resolution, number of patients",[3]; [6],67
same,"MRI-PDFF ≥30% reduction, % of patients",[3]; [7],(71.2%)
same,"MRI-PDFF ≥30% reduction, patients/evaluated",[3]; [7],136/191
same,"Fibrosis Improvement, % of patients",[3]; [8],33.3%
same,"Fibrosis Improvement, number of patients",[3]; [8],76
same,"NASH Resolution, % of patients",[3]; [8],36%
same,"NASH Resolution, number of patients",[3]; [8],82
same,"MRI-PDFF ≥30% reduction, % of patients","[3]; MetALD, 80 mg",(88%)
same,"MRI-PDFF ≥30% reduction, patients/evaluated","[3]; MetALD, 80 mg",23/26
same,"Fibrosis Improvement, % of patients","[3]; MetALD, 80 mg (n = 34)",35%
same,"Fibrosis Improvement, number of patients","[3]; MetALD, 80 mg (n = 34)",12
same,"NASH Resolution, % of patients","[3]; MetALD, 80 mg (n = 34)",29%
same,"NASH Resolution, number of patients","[3]; MetALD, 80 mg (n = 34)",10
same,"MRI-PDFF ≥30% reduction, % of patients","[3]; MetALD, 100 mg",(81%)
same,"MRI-PDFF ≥30% reduction, patients/evaluated","[3]; MetALD, 100 mg",13/16
same,"Fibrosis Improvement, % of patients","[3]; MetALD, 100 mg (n = 20)",30%
same,"Fibrosis Improvement, number of patients","[3]; MetALD, 100 mg (n = 20)",6
same,"NASH Resolution, % of patients","[3]; MetALD, 100 mg (n = 20)",35%
same,"NASH Resolution, number of patients","[3]; MetALD, 100 mg (n = 20)",7
same,"NASH resolution, patients",[3]; [9],29.9%
same,"fibrosis improvement, patients",[3]; [9],29%
same,"≥30% reduction from baseline in MRI-PDFF, patients",[3]; [9],59.2%
same,"NASH resolution, patients",[3]; [10],36%
same,"fibrosis improvement, patients",[3]; [10],33.3%
same,"≥30% reduction from baseline in MRI-PDFF, patients",[3]; [10],71.2%
same,"NASH resolution, patients","[3]; possible MetALD, 80 mg",29%
same,"fibrosis improvement, patients","[3]; possible MetALD, 80 mg",35%
same,"≥30% reduction from baseline in MRI-PDFF, patients","[3]; possible MetALD, 80 mg",88%
same,"NASH resolution, patients","[3]; possible MetALD, 100 mg",35%
same,"fibrosis improvement, patients","[3]; possible MetALD, 100 mg",30%
same,"≥30% reduction from baseline in MRI-PDFF, patients","[3]; possible MetALD, 100 mg",81%
same,PRO-C3 change from baseline,"[4]; 80 mg, Week 52",−17.93 (4.61)
same,mean difference vs placebo in PRO-C3 change from baseline,"[4]; 80 mg, Week 52",−16.9
same,PRO-C3 change from baseline,"[4]; 100 mg, Week 52",−23.05 (4.76)
same,mean difference vs placebo in PRO-C3 change from baseline,"[4]; 100 mg, Week 52",−22.1
same,"Change from Baseline in PRO-C3, Mean",[4]; [11],-0.69 ng/mL
same,"Change from Baseline in PRO-C3, Median",[4]; [11],4.30 ng/mL
same,"Change from Baseline in PRO-C3, Mean",[4]; [12],-7.20 ng/mL
same,"Change from Baseline in PRO-C3, Median",[4]; [12],0.40 ng/mL
same,"Change from Baseline in PRO-C3, Mean",[4]; [13],-11.51 ng/mL
same,"Change from Baseline in PRO-C3, Median",[4]; [13],-13.65 ng/mL
same,"Change from Baseline in PRO-C3, Mean",[4]; [14],-15.79 ng/mL
same,"Change from Baseline in PRO-C3, Median",[4]; [14],-10.10 ng/mL
same,"Change from Baseline in PRO-C3, Mean",[4]; [15],-22.42 ng/mL
same,"Change from Baseline in PRO-C3, Median",[4]; [15],-11.90 ng/mL
same,"Change from Baseline in PRO-C3, Mean",[4]; [16],-27.42 ng/mL
same,"Change from Baseline in PRO-C3, Median",[4]; [16],-18.30 ng/mL
same,PRO-C3 change from baseline,"[4]; F3 patients, 80 mg, Week 52",−22.42 (6.38)
same,PRO-C3 change from baseline,"[4]; F3 patients, 100 mg, Week 52",−27.42 (6.72)
same,"Change from Baseline in PRO-C3, Mean",[4]; [17],-17.93 ng/mL
same,"Change from Baseline in PRO-C3, Median",[4]; [17],-11.95 ng/mL
same,"Change from Baseline in PRO-C3, Mean",[4]; [18],-23.05 ng/mL
same,"Change from Baseline in PRO-C3, Median",[4]; [18],-13.40 ng/mL
same,effect of concomitant CYP2C8 inhibitor on exposure,CYP2C8,increase resmetirom Cmax and AUC

# Reference: patent publication US12377104B1, “Methods for treating a fatty liver disease” (Madrigal Pharmaceuticals, Inc., priority 2024, dated 2025)
